In patent US20030144295A1, “Treatment for ischemic stroke” (YAMANOUCHI PHARMACEUTICAL CO., LTD., priority 2001, published 2003):

How the values were obtained:
[1] = system: rat embolic stroke models; assay: Infarct volume (TTC staining) in rat embolic stroke models, Example 1; type: in vivo, rat (male Sprague-Dawley); conditions: 24 hours after blood clot injection; administration started 2 hours after clot; alteplase 10 mg/kg i.v., compound A 20 mg/kg/hour i.v. for 4 hours; n=8; control 361.2±20.9
Procedure: FIG. 1: Effect of a combined use of compound A with alteplase on infarct volume in rat embolic stroke models. Administration of compound A (20 mg/kg/hr; i.v. for 4 hours) and alteplase (10 mg/kg; i.v.; 10% of the total dose was subjected to an intravenous bolus administration while the remainder (90%) was subjected to an intravenous administration continuously over 1 hour) was initiated 2 hours after the injection of blood clot. After 24 hours from the infusion of the blood clot, the brain was excised, sliced and stained with TTC. The data in the drawing show a mean value±standard error (n=8). The symbol * means a statistically significant difference from a control group or an alteplase-administered group (*p<0.05; Dunnett's test or t-test). […]
(§1) Evaluation of formation of cerebral embolism by injection of blood clot was carried out using a laser Doppler flowmetry (FloC1; Omegawave) and the cerebral blood flow decreased to a level of 30% or less of the blood clot value immediately after ischemia was taken as a positive evidence of embolism formation. […] The cerebral blood flow was monitored until 30 minutes after infusion of the blood clot and the blood flow of 30 minutes after ischemia was confirmed to-remain 50% or less than the value prior to the injection of the blood clot. […]

[2] = system: rat embolic stroke models; assay: Neurological symptoms (Bederson score) in rat embolic stroke models, Example 1; type: in vivo, rat (male Sprague-Dawley); conditions: Bederson score 0-3, 24 hours after blood clot injection; administration started 2 hours after clot; alteplase 10 mg/kg i.v., compound A 20 mg/kg/hour for 4 hours; n=8; control 2.5
Procedure: FIG. 2: Effect of a combined use of compound A with alteplase on neurological symptoms in rat embolic stroke models. Administration of zonampanel (20 mg/kg/hr; i.v. for 4 hours) and alteplase (10 mg/kg; i.v.; 10% of the total dose was subjected to an intravenous bolus administration while the remainder (90%) was subjected to an intravenous administration continuously over 1 hour) was initiated 2 hours after the injection of blood clot. After 24 hours from the injection of the blood clot, the neurological symptoms were observed. Data in the drawing show the data derived from each animal (n=8). The symbol * means a statistically significant difference from a control group or an alteplase-administered group (*p<0.05; Steel's test or Wilcoxon-test). […]
as §1

AMPA receptor = conditions: cited from earlier work
[3] = cited from earlier work

| Molecule | infarct volume (mean value±standard error) [1] [mm^3] | neurological symptom score (median value) [2] | AMPA binding activity (AMPA receptor) | solubility in water [3] |
| --- | --- | --- | --- | --- |
| Alteplase [reference compound] | 202.7±49.3 |  |  |  |
| O=C(O)Cn1c(=O)c(=O)[nH]c2cc([N+](=O)[O-])c(-n3ccnc3)cc21 [compound A, [7-(1H-imidazol-1-yl)-6-nitro-2,3-dioxo-3,4-dihydroquinoxalin-1(2H)-yl]acetic acid] | 194.6±50.6 | 2 | strong and selective | high |
